Like-named read-outs stand apart in the source and are kept apart here.
Assays:
JAK2 kinase domain (JH1) = JAK2 kinase domain (JH1) (Homo sapiens (Human), UniProt O60674); experiment: JAK2 Radioactive Kinase Assay; assay type: biochemical; details: for inhibition at 10 µM: read-out: JAK2 JH1% Inhibition @ 10 μM
Summary of the method: (§1)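 Read-out is percent inhibition from a radioactive kinase reaction, measured with compound at 10 μM.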

[1] = target: human TYK2 (JH2domain-pseudokinase) (Homo sapiens (Human), UniProt P29597); experiment: TYK2 JH2 Domain Binding Assay (KINOMEscan)
Sequence of human TYK2 (JH2domain-pseudokinase) (P29597 556-888): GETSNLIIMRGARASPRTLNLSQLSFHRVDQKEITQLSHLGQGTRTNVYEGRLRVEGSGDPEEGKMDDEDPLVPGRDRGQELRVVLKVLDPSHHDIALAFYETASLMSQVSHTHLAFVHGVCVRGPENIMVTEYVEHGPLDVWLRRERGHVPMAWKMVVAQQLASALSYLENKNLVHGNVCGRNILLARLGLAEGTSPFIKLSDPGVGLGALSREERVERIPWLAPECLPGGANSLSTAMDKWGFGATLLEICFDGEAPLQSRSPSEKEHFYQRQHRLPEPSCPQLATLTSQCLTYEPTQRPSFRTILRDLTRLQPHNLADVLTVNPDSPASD
Summary of the method: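 Displacement of a DNA-tagged TYK2 JH2 fusion (human, aa G556–D888, HEK293 extract, <0.1 nM) from ligand-coated beads over 1 h at RT; binding buffer PBS/0.05% Tween 20/10 mM DTT/0.1% BSA.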

Tyk2 kinase domain (DH1) = Tyk2 kinase domain (DH1) (Homo sapiens (Human), UniProt P29597); experiment: Tyk2 Radioactive Kinase Assay; assay type: biochemical; details: for inhibition at 10 µM: read-out: Tyk2 JH1% Inhibition @ 10 μM
Sequence of Tyk2 kinase domain (DH1) (P29597 897-1176): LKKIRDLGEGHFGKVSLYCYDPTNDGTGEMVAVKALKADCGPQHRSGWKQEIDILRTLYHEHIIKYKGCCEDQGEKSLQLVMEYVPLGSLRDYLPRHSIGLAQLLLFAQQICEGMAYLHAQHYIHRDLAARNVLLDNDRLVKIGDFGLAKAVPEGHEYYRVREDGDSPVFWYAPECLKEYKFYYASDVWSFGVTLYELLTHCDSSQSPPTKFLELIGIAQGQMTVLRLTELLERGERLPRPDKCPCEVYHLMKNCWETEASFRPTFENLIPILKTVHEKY
Summary of the method: as §1

Sequence of JAK2 kinase domain (JH1) (O60674 849-1124): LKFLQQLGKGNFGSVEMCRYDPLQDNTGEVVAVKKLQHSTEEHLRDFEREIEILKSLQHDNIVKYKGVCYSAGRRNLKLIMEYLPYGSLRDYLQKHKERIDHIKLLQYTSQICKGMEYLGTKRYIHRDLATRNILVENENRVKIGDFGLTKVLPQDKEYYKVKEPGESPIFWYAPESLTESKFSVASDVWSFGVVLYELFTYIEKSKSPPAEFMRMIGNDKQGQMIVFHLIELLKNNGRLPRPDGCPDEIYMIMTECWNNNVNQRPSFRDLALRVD

Row | SMILES | Kd [1] [nM] | inhibition at 10 µM (JAK2 kinase domain (JH1); compound at 10 μM, ATP 10 μM) [%] | inhibition at 10 µM (Tyk2 kinase domain (DH1); compound at 10 μM, ATP 10 μM) [%] | also measured
1 | CNc1cc(Nc2cccn(-c3cnco3)c2=O)nc2c(C(=O)N[C@H]3CC[C@H]3O)cnn12 [I-809] | 0.2 to 1 |  |  | JAK2 JH1% Inhibition @ 10 μM (JAK2 kinase domain (JH1); 10 μM compound, 10 μM ATP): A (percent inhibition at 10 μM lower than 50); Tyk2 JH1% Inhibition @ 10 μM (Tyk2 kinase domain (DH1); 10 μM compound, 10 μM ATP): A (percent inhibition at 10 μM lower than 50)
2 | CNc1cc(Nc2cccn(C(C)C)c2=O)nc2c(C(=O)N[C@H]3CCC[C@H](O)C3)cnn12 [I-1078] | < 0.2 |  |  | inhibition at 10 µM (JAK2 kinase domain (JH1); 10 μM compound, 10 μM ATP): < 50%; inhibition at 10 µM (Tyk2 kinase domain (DH1); 10 μM compound, 10 μM ATP): < 50%
3 | CNc1cc(Nc2cccn(-c3ccccn3)c2=O)nc2c(C(=O)NC[C@H](C)CO)cnn12 [I-730] | < 0.2 | < 50 | < 50 | 
4 | CNc1cc(Nc2cccn(-c3ccc(C(=O)N4CCCC4)cn3)c2=O)nc2c(C(N)=O)cnn12 [I-45] | < 0.2 | < 50 | < 50 | 
5 | [2H]C([2H])([2H])Oc1ncccc1Nc1cc(NC)n2ncc(C(=O)NCCC3CCCO3)c2n1 (stereo not drawn) [I-419, 5-((2-(methoxy-d3)pyridin-3-yl)amino)-7-(methylamino)-N-(2-(tetrahydrofuran-2-yl)ethyl)pyrazolo[1,5-a]pyrimidine-3-carboxamide] | 1 to 10 | < 50 | < 50 | 
6 | CNc1cc(Nc2cccn(-c3ccnn3C)c2=O)nc2c(C(=O)NC3CCC3)cnn12 [I-328] | < 0.2 | < 50 | < 50 | 
7 | CNc1cc(Nc2cccnc2OC)nc2c(C(=O)N[C@H]3COC[C@H]3O)cnn12 [I-615] | < 0.2 | < 50 | < 50 | 
8 | CNc1cc(Nc2cccc(N3CCOCC3)n2)nc2c(C(=O)NC3CC3)cnn12 [I-589] | < 0.2 | < 50 | < 50 | 
9 | CNc1cc(Nc2ccc3c(n2)CCO3)nc2c(C(=O)N[C@H]3C[C@H]3F)cnn12 [I-632] | < 0.2 | < 50 | < 50 | 
10 | CNc1cc(Nc2cccn(CCOC3CC3)c2=O)nc2c(C(=O)NC3CC[C@H]3O)cnn12 (stereo in doubt) [I-515, 5-((1-(2-cyclopropoxyethyl)-2-oxo-1,2-dihydropyridin-3-yl)amino)-N-((1R,2R)-2-hydroxycyclobutyl)-7-(methylamino)pyrazolo[1,5-a]pyrimidine-3-carboxamide] | 0.2 to 1 | < 50 | < 50 | 
11 | CNc1cc(Nc2cccn(C3CCOCC3)c2=O)nc2c(C(=O)N[C@@H]3COC[C@@H]3O)cnn12 [I-674] | 0.2 to 1 | < 50 | < 50 | 
12 | CNc1cc(Nc2cccn([C@H]3C[C@@H]3F)c2=O)nc2c(C(=O)NCC3(CO)CC3)cnn12 (stereo in doubt) [I-1061, 5-((1-(2-fluorocyclopropyl)-2-oxo-1,2-dihydropyridin-3-yl)amino)-N-((1-(hydroxymethyl)cyclopropyl)methyl)-7-(methylamino)pyrazolo[1,5-a]pyrimidine-3-carboxamide] | < 0.2 |  |  | inhibition at 10 µM (JAK2 kinase domain (JH1); 10 μM compound, 10 μM ATP): < 50%; inhibition at 10 µM (Tyk2 kinase domain (DH1); 10 μM compound, 10 μM ATP): < 50%
13 | CNc1cc(Nc2cccn([C@H]3CCC[C@@H](OC)C3)c2=O)nc2c(C(=O)N[C@@H]3C[C@@H]3F)cnn12 [I-795] | < 0.2 | < 50 | < 50 | 
14 | CNc1cc(Nc2cccn(-c3cncc(F)c3)c2=O)nc2c(C(=O)NC3CC3)cnn12 [I-967] | < 0.2 |  |  | inhibition at 10 µM (JAK2 kinase domain (JH1); 10 μM compound, 10 μM ATP): < 50%; inhibition at 10 µM (Tyk2 kinase domain (DH1); 10 μM compound, 10 μM ATP): < 50%
15 | CNc1cc(Nc2cccnc2OC(CO)CO)nc2c(C(=O)NC3CCC3)cnn12 [I-201] | < 0.2 | < 50 | < 50 | 
16 | CNc1cc(Nc2cccnc2OC2CC2)nc2c(C(=O)NC(C)(C)C#N)cnn12 [I-492, N-(2-cyanopropan-2-yl)-5-((2-cyclopropoxypyridin-3-yl)amino)-7-(methylamino)pyrazolo[1,5-a]pyrimidine-3-carboxamide] | < 0.2 | < 50 | < 50 | 
17 | Cc1cc(Nc2cc(N)n3ncc(C(N)=O)c3n2)cc(N2CCCC(O)C2)n1 (stereo in doubt) [I-62, (S)-7-amino-5-((2-(3-hydroxypiperidin-1-yl)-6-methylpyridin-4-yl)amino)pyrazolo[1,5-a]pyrimidine-3-carboxamide] | > 10 | < 50 | < 50 | 
18 | CNc1cc(Nc2cc(Cl)cnc2O[C@H]2C[C@H](OC)C2)nc2c(C(N)=O)cnn12 [I-111] | 0.2 to 1 | < 50 | < 50 | 
19 | CNc1cc(Nc2cccn(-c3cnn(C)c3)c2=O)nc2c(C(=O)NCC(C)CO)cnn12 (stereo not drawn) [I-633] | < 0.2 | < 50 | < 50 | 
20 | CNc1cc(Nc2cccn(-c3nc(C)co3)c2=O)nc2c(C(=O)N[C@@H]3CC[C@H]3O)cnn12 [I-768] | < 0.2 | < 50 | < 50 | 
21 | CNc1cc(Nc2cnn(C)c2)nc2c(C(N)=O)cnn12 [I-11] | 1 to 10 | < 50 | < 50 | 

Row | SMILES | Kd [1] [nM] | inhibition at 10 µM (JAK2 kinase domain (JH1); compound at 10 μM, ATP 10 μM) [%] | inhibition at 10 µM (Tyk2 kinase domain (DH1); compound at 10 μM, ATP 10 μM) [%] | also measured
22 | CNc1cc(Nc2cccn([C@H]3C[C@@H]3F)c2=O)nc2c(C(=O)N[C@H]3CC[C@H]3O)cnn12 (mixture of isomers) [I-1090, 5-((1-((1S,2S)-2-fluorocyclopropyl)-2-oxo-1,2-dihydropyridin-3-yl)amino)-N-(2-hydroxycyclobutyl)-7-(methylamino)pyrazolo[1,5-a]pyrimidine-3-carboxamide] | < 0.2 |  |  | inhibition at 10 µM (JAK2 kinase domain (JH1); 10 μM compound, 10 μM ATP): < 50%; inhibition at 10 µM (Tyk2 kinase domain (DH1); 10 μM compound, 10 μM ATP): < 50%
23 | CNc1cc(-c2cn(CCN3CCCCC3)c3ncccc23)nc2c(C(=O)N[C@H]3CC[C@H]3O)cnn12 [I-875] | < 0.2 |  |  | inhibition at 10 µM (JAK2 kinase domain (JH1); 10 μM compound, 10 μM ATP): < 50%; inhibition at 10 µM (Tyk2 kinase domain (DH1); 10 μM compound, 10 μM ATP): < 50%
24 | CNc1cc(Nc2cccc(N3CCCC3)n2)nc2c(C(=O)N[C@H]3C[C@H]3F)cnn12 [I-383] | 0.2 to 1 | < 50 | < 50 | 
25 | CNc1cc(-c2cn(C(C)C)c3ncc(C)cc23)nc2c(C(=O)NC3CC3)cnn12 [I-252] | 1 to 10 | < 50 | < 50 | 
26 | CNc1cc(Nc2cccn(-c3ncc(C)s3)c2=O)nc2c(C(=O)N[C@H]3CC[C@@H]3O)cnn12 [I-1071] | 1 to 10 |  |  | inhibition at 10 µM (JAK2 kinase domain (JH1); 10 μM compound, 10 μM ATP): < 50%; inhibition at 10 µM (Tyk2 kinase domain (DH1); 10 μM compound, 10 μM ATP): < 50%
27 | CNc1cc(Nc2cccn([C@H]3CC[C@H](OC)CC3)c2=O)nc2c(C(=O)N[C@@H]3COC[C@@H]3O)cnn12 [I-831] | < 0.2 |  |  | inhibition at 10 µM (JAK2 kinase domain (JH1); 10 μM compound, 10 μM ATP): < 50%; inhibition at 10 µM (Tyk2 kinase domain (DH1); 10 μM compound, 10 μM ATP): < 50%
28 | CNc1cc(Nc2cccnc2OCCOC)nc2c(C(=O)NC3CC3)cnn12 [I-218] | < 0.2 | < 50 | < 50 | 
29 | CNc1cc(Nc2cccn(-c3ccccc3F)c2=O)nc2c(C(=O)N[C@@H]3CC[C@@H]3O)cnn12 [I-1036] | 0.2 to 1 |  |  | inhibition at 10 µM (JAK2 kinase domain (JH1); 10 μM compound, 10 μM ATP): < 50%; inhibition at 10 µM (Tyk2 kinase domain (DH1); 10 μM compound, 10 μM ATP): < 50%
30 | CNc1cc(Nc2cc(C)cnc2OC(C)C)nc2c(C(=O)N[C@H]3C[C@H]3F)cnn12 [I-214] | < 0.2 | < 50 | < 50 | 
31 | CNc1cc(Nc2cccnc2C(C)(C)O)nc2c(C(=O)N[C@H]3C[C@H]3F)cnn12 [I-307] | 0.2 to 1 | < 50 | < 50 | 
32 | CNc1cc(Nc2cccn([C@@H]3CCCN(C)C3)c2=O)nc2c(C(=O)N[C@@H]3C[C@@H]3F)cnn12 [I-536] | 0.2 to 1 | < 50 | < 50 | 
33 | CNc1cc(-c2cn(C(C)C)c3ncccc23)nc2c(C(=O)N[C@@H]3CC[C@@H]3O)cnn12 [I-638] | 0.2 to 1 |  |  | JAK2 JH1% Inhibition @ 10 μM (JAK2 kinase domain (JH1); compound at 10 μM, ATP 10 μM): A (percent inhibition at 10 μM lower than 50); Tyk2 JH1% Inhibition @ 10 μM (Tyk2 kinase domain (DH1); compound at 10 μM, ATP 10 μM): A (percent inhibition at 10 μM lower than 50)
34 | CNc1cc(Nc2cccn(CCOC3CC3)c2=O)nc2c(C(=O)N[C@@H]3CC[C@@H]3O)cnn12 [I-473] | 0.2 to 1 | < 50 | < 50 | 
35 | CNc1cc(Nc2cccn(-c3cnco3)c2=O)nc2c(C(=O)N[C@@H]3CC[C@@H]3O)cnn12 [I-1018] | 1 to 10 |  |  | inhibition at 10 µM (JAK2 kinase domain (JH1); 10 μM compound, 10 μM ATP): < 50%; inhibition at 10 µM (Tyk2 kinase domain (DH1); 10 μM compound, 10 μM ATP): < 50%
36 | CNc1cc(Nc2cccn([C@@H]3CCN(CCF)C3)c2=O)nc2c(C(=O)NC3CC3)cnn12 [I-933] | < 0.2 |  |  | inhibition at 10 µM (JAK2 kinase domain (JH1); 10 μM compound, 10 μM ATP): < 50%; inhibition at 10 µM (Tyk2 kinase domain (DH1); 10 μM compound, 10 μM ATP): < 50%
37 | NC(=O)c1cnn2c(N)cc(Nc3cccc(N4CCOC4=O)n3)nc12 [I-66] | 0.2 to 1 | 50 to 70 | < 50 | 
38 | CNc1cc(Nc2cccn(C3CCN(C)CC3)c2=O)nc2c(C(=O)N[C@H]3C[C@H]3F)cnn12 [I-349] | < 0.2 | < 50 | < 50 | 
39 | CNc1cc(-c2nn(CCN3CCOCC3)c3ncccc23)nc2c(C(=O)NC3CC3)cnn12 [I-455] | 1 to 10 | < 50 | < 50 | 
40 | CNc1cc(Nc2cccn(-c3ccn(C4CC4)n3)c2=O)nc2c(C(=O)NC3CC3)cnn12 [I-98] | < 0.2 | < 50 | < 50 | 
41 | CNc1cc(Nc2cccnc2C(C)(C)O)nc2c(C(=O)NC3CC3)cnn12 [I-306] | 1 to 10 | < 50 | < 50 | 
42 | CNc1cc(Nc2cccn(-c3ccc(OC)cn3)c2=O)nc2c(C(=O)NC3CC3)cnn12 [I-264] | 0.2 to 1 | < 50 | < 50 | 

From patent US10508120B2, “TYK2 inhibitors and uses thereof” (Nimbus Lakshmi, Inc., priority 2017, dated 2019)
